{
  "source": "patent US8076489B2",
  "about": "“5-hydroxy-benzothiazole derivatives having beta-2-adrenoreceptor agonist activity” (Novartis AG, priority 2004, dated 2011)",
  "key": {"[1]": {"target": "β2-adrenoreceptor (Homo sapiens, UniProt P07550)", "sequence (P07550 whole entry, species assumed)": "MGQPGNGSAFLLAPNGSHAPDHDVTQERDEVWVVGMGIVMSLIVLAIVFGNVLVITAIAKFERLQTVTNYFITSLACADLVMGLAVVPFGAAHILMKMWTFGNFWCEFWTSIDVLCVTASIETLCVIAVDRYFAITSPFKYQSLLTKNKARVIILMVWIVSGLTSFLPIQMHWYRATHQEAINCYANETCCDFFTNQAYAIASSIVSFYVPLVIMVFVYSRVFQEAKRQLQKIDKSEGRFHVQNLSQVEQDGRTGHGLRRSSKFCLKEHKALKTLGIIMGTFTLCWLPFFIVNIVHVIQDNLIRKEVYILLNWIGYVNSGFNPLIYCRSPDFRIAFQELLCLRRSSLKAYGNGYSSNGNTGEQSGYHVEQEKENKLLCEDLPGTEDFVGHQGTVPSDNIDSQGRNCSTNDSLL", "experiment": "classical filtration binding assay, β2 binding potency", "source_text": "(§1) Compounds of formulae IX are known or may be prepared using procedures that are known or are analogous to those hereinafter described in the Examples. Compounds of formula I in free, salt or solvate form are useful as pharmaceuticals. Accordingly the invention also provides a compound of formula I in free, salt or solvate form for use as a pharmaceutical. The compounds of formula I in free, salt or solvate form, hereinafter referred to alternatively as “agents of the invention”, have good β2-adreno-receptor agonist activity. The β2 agonist activity, onset of action and duration of action of the agents of the invention may be tested using the guinea pig tracheal strip in vitro assay according to the procedure of R. A. Coleman and A. T. Nials, J. Pharmacol. Methods 1989, 21, 71. The binding potency and selectivity for the β2-adrenoreceptor relative to the β1-adrenoreceptor can be measured by a classical filtration binding assay according to the procedure of Current Protocols in Pharmacology (S. J. Enna (editor-in-chief) et al, John Wiley & Son, Inc, 1998), or by cAMP determination in cells expressing β2- or β1-adreno-ceptor, according to the procedure of B. January et al, Brit. J. Pharmacol. 1998, 123, 701.\nMany of the compounds have binding selectivities for the β2-adrenoreceptor relative to the β1-adrenoreceptor from 1.5 to 500."}, "[2]": {"system": "guinea pig tracheal strip", "experiment": "guinea-pig tracheal strip in vitro assay (duration of action)", "format": "cell-based", "source_text": "as §1"}, "[3]": {"details": "classical filtration binding assay, read-out: β2 binding potency, Ki"}},
  "note": "Like-named read-outs stand apart in the source and are kept apart here.",
  "data": [
    {"compound": "CC(CCc1ccccc1)NCC(O)c1cc(O)cc2[nH]c(=O)sc12", "note": "(stereo not shown) [Example 9]", "values": [
      {"measurement": "Ki", "setting": "[1]; [3]", "value": 16, "unit": "nM"}
    ]},
    {"compound": "O=c1[nH]c2cc(O)cc(C(O)CNC3CCCC3OCc3ccccc3)c2s1", "note": "(stereo not shown) [Example 17]", "values": [
      {"measurement": "Ki", "setting": "[1]; [3]", "value": 2, "unit": "nM"}
    ]},
    {"compound": "CN(C)c1ccc(CC(C)(C)NC[C@@H](O)c2cc(O)cc3[nH]c(=O)sc23)cc1", "note": "[Example 18, (S)-7-{2-[2-(4-Dimethylamino-phenyl)-1,1-dimethyl-ethylamino]-1-hydroxy-ethyl}-5-hydroxy-3H-benzothiazol-2-one]", "values": [
      {"measurement": "T(50%) time for inhibition of contraction to decay to 50% of its maximum value", "setting": "[2]; 10 nM concentration", "value": 595, "unit": "min"}
    ]},
    {"compound": "CCCCOc1ccc(CC(C)(C)NCC(O)c2cc(O)cc3[nH]c(=O)sc23)cc1", "note": "(stereo not shown) [Example 4]", "values": [
      {"measurement": "Ki", "setting": "[1]", "value": 27, "unit": "nM"}
    ]},
    {"compound": "CC(NCC(O)c1cc(O)cc2[nH]c(=O)sc12)C1CCCCC1", "note": "(stereo not shown) [Example 2]", "values": [
      {"measurement": "Ki", "setting": "[1]; [3]", "value": 61, "unit": "nM"}
    ]},
    {"compound": "O=c1[nH]c2cc(O)cc(C(O)CNC3CCCC3C3CCCC3)c2s1", "note": "(stereo not shown) [Example 14]", "values": [
      {"measurement": "Ki", "setting": "[1]; [3]", "value": 56, "unit": "nM"}
    ]},
    {"compound": "CC(C)(Cc1ccccc1)NC[C@H](O)c1cc(O)cc2[nH]c(=O)sc12", "note": "[Example 1, (R)-7-[2-(1,1-Dimethyl-2-phenyl-ethylamino)-1-hydroxy-ethyl]-5-hydroxy-3H-benzothiazol-2-one]", "values": [
      {"measurement": "T(50%) time for inhibition of contraction to decay to 50% of its maximum value", "setting": "[2]; 100 nM concentration", "value": "> 672", "unit": "min"}
    ]}
  ]
}
